Measurements taken from article PMC5012427 (Molecular cell, 2016).
Residue numbers refer to the chain shown, from its start.

Assays:
[1] = target: T1, Coq8^NΔ41 (Coq8p) (Saccharomyces cerevisiae, UniProt P27697, A197G); assay: nucleotide binding; conditions: A-rich loop A-to-G mutant
T1 sequence (P27697 42-501 A197G): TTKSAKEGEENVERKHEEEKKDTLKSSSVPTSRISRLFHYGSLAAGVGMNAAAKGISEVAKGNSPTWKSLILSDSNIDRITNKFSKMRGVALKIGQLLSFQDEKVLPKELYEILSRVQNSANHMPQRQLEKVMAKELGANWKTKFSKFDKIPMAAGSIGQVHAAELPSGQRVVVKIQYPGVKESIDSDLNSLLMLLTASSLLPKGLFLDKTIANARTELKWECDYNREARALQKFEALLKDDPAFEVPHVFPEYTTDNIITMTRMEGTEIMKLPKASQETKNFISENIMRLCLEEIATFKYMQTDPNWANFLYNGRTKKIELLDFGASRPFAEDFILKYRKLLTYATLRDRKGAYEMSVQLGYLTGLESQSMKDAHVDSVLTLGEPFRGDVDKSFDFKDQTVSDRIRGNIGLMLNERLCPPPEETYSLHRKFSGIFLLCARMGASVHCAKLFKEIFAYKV

[2] = target: T2, MBP-Coq8^NΔ41 (Saccharomyces cerevisiae, UniProt P27697); assay: co-purification, LC-MS/MS lipidomics; format: binding; conditions: co-purified from E. coli; WT compared with mutants
T2 sequence (P27697 42-501): T1 sequence (P27697 42-501 A197G) with G156A

Nc1ncnc2c1ncn2[C@@H]1O[C@H](COP(=O)(O)OP(=O)(O)O)[C@@H](O)[C@H]1O [ADP]
nucleotide binding (method in supplement) [1]: selectivity for ADP over ATP that can be reversed by an A-rich loop A-to-G mutation

CC(C)=CCC/C(C)=C/CC/C(C)=C/CC/C(C)=C/CC/C(C)=C/CC/C(C)=C/CC/C(C)=C/Cc1ccccc1O [heptaprenylphenol]
co-purification, LC-MS/MS lipidomics [2]: binding of OHB, OPP, and heptaprenylphenol (HPP) was decreased by Coq8p active site mutations
